Results on eight molecules are retold here after PMC6327999, “Hydroxyl-substituted double Schiff-base condensed 4-piperidone/cyclohexanones as potential anticancer agents with biological evaluation” (Journal of Enzyme Inhibition and Medicinal Chemistry, 2019).

What all share (format): cell-based
Assay [1] deals with human carcinoma cell lines A549, SGC7901, HePG2, HeLa, K562, THP-1. The assay is described as follows: Cytotoxicity, MTT assay, panel of human carcinoma cell lines (average / overall). The following applies: average over the six carcinoma cell lines; for IC50: Homo sapiens, read-out: Ave IC50. An excerpt: (§1) Compounds 2a–d, 3a–e, 4a–e, 5a–d, and 6a–c were screened against human neoplastic cell lines such as human lung carcinoma cells (A549), human gastric adenocarcinoma cells (SGC7901), human cervical carcinoma cells (HeLa), human liver hepatocellular carcinoma cell line (Hepg2), human chronic myelogenous leukemia cell line (K562), human acute mononuclear granulocyte leukemia (THP-1), human normal heptical cell line (LO2) (Table 1) using modified MTT assay (3-(4,5-dimethyl-2-thiazolyl)-2,5-diphenyl-2-H-tetrazolium bromide, MTT, Dojindo Laboratories, Tokyo, Japan). All cell lines were maintained at 37 °C in a humidified 5% CO2 and 95% air atmosphere. The HePG2 cell lines were cultured in DMEM containing 10% fetal bovine serum. Other cell lines were grown in medium 1640 and supplemented with 10% fetal bovine serum. […] Controls were prepared with 0.1% DMSO (v/v) only. The cells were seeded in a 96-well plate in 200 µL medium per well at a density of 1 × 10^4 cells/well for 24 hours. The cells were treated with serial concentrations of compound and incubated for 24 hours. Cells with only culture media were used as control. After the media was removed, 20 µL of MTT (5 mg/mL) was added then the plates were incubated for 4 hours at 37 °C in cell culture incubator. The MTT containing media were removed and then 150 µL of DMSO was added to dissolve the dark-blue formazan crystals. The optical density (OD) was measured by a multi-well plate reader (TECAN, Männedorf, Switzerland) at 570 nm. The results are expressed as a decrease in the cell viability (%) in comparison to untreated controls. The concentration of each compound was examined in triplicate, and the IC50 values are expressed in Table 1. The concentrations of the compounds were 50, 20, 10, 5, 2.5, 1, 0.5, 0.1, 0.05 and 0.01 µg/mL. Doxorubicin (DOX) and Curcumin were used as positive controls. […] The concentrations of curcumin used were 100, 50, 25, 12.5, 6.25, 3.125, 1, 0.5 and 0.1 µg/mL.
The cytotoxicity activities against human carcinoma cell lines A549, SGC7901, HePG2, HeLa, K562, THP-1 and cytotoxicity toward LO2 cell lines were evaluated by MTT method. DOX and curcumin were used as positive control. The selectivity index (SI) is the quotient of the IC50 values towards nonmalignant LO2 cells. […] Especially for 4a–e, 5a–d, and 6a–c, this ratio can reach about 92%.
In general terms: Tetrazolium assays rely on reduction of a dye to a coloured formazan, in cell work by metabolically active cells.

For assay [2], the system named is human lung carcinoma cells (A549). The assay is described as follows: Cytotoxicity, MTT assay, A549. To be noted: for IC50: Homo sapiens, A549, MTT, 24 hours; for A549 SI: quotient of the IC50 values towards nonmalignant LO2 cells.
Source text: as §1

Assay [3] concerns human normal heptical cell line (LO2). Put plainly: Cytotoxicity, MTT assay, non-malignant LO2. To be noted: 24 hours, non-malignant cells.
Source text: as §1

For assay [4], the system named is human acute mononuclear granulocyte leukemia (THP-1). Put plainly: Cytotoxicity, MTT assay, THP-1. The following applies: for IC50: Homo sapiens, THP-1, MTT, 24 hours; for THP-1 SI: quotient of the IC50 values towards nonmalignant LO2 cells.
Source text: as §1

Assay [5] relates to human liver hepatocellular carcinoma cell line (Hepg2). The assay is described as follows: Cytotoxicity, MTT assay, HePG2. To be noted: for IC50: Homo sapiens, HepG2, MTT, 24 hours; for HePG2 SI: quotient of the IC50 values towards nonmalignant LO2 cells.
Source text: as §1, with “µg/mL.” for “µg/mL. Doxorubicin (DOX) and Curcumin were used as positive controls.”

In assay [6] the test system is human gastric adenocarcinoma cells (SGC7901). Put plainly: Cytotoxicity, MTT assay, SGC7901. To be noted: for IC50: Homo sapiens, SGC-7901, MTT, 24 hours; for SGC7901 SI: quotient of the IC50 values towards nonmalignant LO2 cells.
Source text: as §1

In assay [7] the test system is human cervical carcinoma cells (HeLa). The assay is described as follows: Cytotoxicity, MTT assay, HeLa. The following applies: for IC50: Homo sapiens, HeLa, MTT, 24 hours; for HeLa SI: quotient of the IC50 values towards nonmalignant LO2 cells.
Source text: as §1

Assay [8] has as its system human chronic myelogenous leukemia cell line (K562). Put plainly: Cytotoxicity, MTT assay, K562. To be noted: for IC50: Homo sapiens, K562, MTT, 24 hours; for K562 SI: quotient of the IC50 values towards nonmalignant LO2 cells.
Source text: as §1

The structures appear in SMILES notation.

As for `CN1C/C(=C\c2cccc(N)c2)C(=O)/C(=C/c2cccc(N)c2)C1` [2b, (3E,5E)-3,5-bis(3-aminobenzylidene)-1-methylpiperidin-4-one], in assay [1], the half-inhibitory concentration (IC50) stood at 4 µM and the “Ave SI” value turned out to be 5.2. In addition, in assay [2], the IC50 was found to be 6.5 ± 0.1 µM and the “A549 SI” value was determined as 2.6. The half-maximal inhibitory concentration (IC50) in assay [3] is 16.9 ± 0.2 µM. Moreover, in assay [4], the IC50 was 1.5 ± 0.1 µM and the “THP-1 SI” value worked out at 11.5. Further, in assay [5], inhibition was half-maximal at 3.1 ± 0.2 µM (IC50) and the “HePG2 SI” value turned out to be 5.4. In assay [6], the IC50 came to 4.2 ± 0.3 µM and the “SGC7901 SI” value is recorded as 4.0. In assay [7], half-maximal inhibition (IC50) was put at 4.4 ± 0.1 µM and the “HeLa SI” value was determined as 3.8. For the same molecule, in assay [8], half-maximal inhibition (IC50) was put at 4.3 ± 0.1 µM and the “K562 SI” value is given as 3.9.
Turning to `O=C1/C(=C/c2cc(/N=C/c3cccc(O)c3O)ccc2F)CNC/C1=C\c1cc(/N=C/c2cccc(O)c2O)ccc1F` [5a], the IC50 came out at 1.6 µM in assay [1]; 2.8 ± 0.2 µM in assay [2]; 17.6 ± 1 µM in assay [3]; 1 ± 0.3 µM in assay [4]; 1.8 ± 0.05 µM in assay [5]; 1.6 ± 0.1 µM in assay [6]. Also, the IC50 in assay [7] was determined as 1.1 ± 0.4 µM; in assay [8], 1.5 ± 0.1 µM. For the same molecule, the “Ave SI” value in assay [1] is on record as 12.1. Moreover, the “A549 SI” value in assay [2] is listed as 6.4. In addition, the “THP-1 SI” value in assay [4] was found to be 18.5. Moreover, the “HePG2 SI” value in assay [5] worked out at 9.7. Further, the “SGC7901 SI” value in assay [6] came out at 11.2. In addition, in assay [7], the “HeLa SI” value stood at 15.0. Further, the “K562 SI” value in assay [8] turned out to be 11.7.
With `CN1C/C(=C\c2cc(N)ccc2F)C(=O)/C(=C/c2cc(N)ccc2F)C1` [2d], the half-maximal inhibitory concentration (IC50) was determined as 3.7 µM in assay [1]; 4.1 ± 1 µM in assay [2]; 21.6 ± 2.8 µM in assay [3]; 2.1 ± 1.1 µM in assay [4]; 6.2 ± 0.3 µM in assay [5]; 3.8 ± 1.2 µM in assay [6]. For the same molecule, the IC50 in assay [7] is 3.1 ± 0.1 µM; in assay [8], 3 ± 0.1 µM. Moreover, the “Ave SI” value in assay [1] turned out to be 6.5. In addition, the “A549 SI” value in assay [2] is reported as 5.4. Further, in assay [4], the “THP-1 SI” value is given as 10.3. Also, the “HePG2 SI” value in assay [5] is recorded as 3.5. Also, in assay [6], the “SGC7901 SI” value is listed as 5.6. Moreover, the “HeLa SI” value in assay [7] is listed as 6.9. In addition, the “K562 SI” value in assay [8] was determined as 7.3.
Regarding `CN1C/C(=C\c2cc(/N=C/c3ccc(O)c(O)c3O)ccc2F)C(=O)/C(=C/c2cc(/N=C/c3ccc(O)c(O)c3O)ccc2F)C1` [6c], in assay [1], the 50% inhibitory concentration (IC50) was determined as 2 µM and the “Ave SI” value stood at 9.5. For the same molecule, in assay [2], half-maximal inhibition (IC50) was put at 1.5 ± 0.2 µM and the “A549 SI” value came out at 12.5. Moreover, the IC50 in assay [3] was determined as 18.4 ± 1 µM. In addition, in assay [4], the IC50 is 1.6 ± 0.1 µM and the “THP-1 SI” value is on record as 11.4. Also, in assay [5], the IC50 is 2.6 ± 0.2 µM and the “HePG2 SI” value was found to be 7.1. Moreover, in assay [6], 2 ± 0.2 µM corresponded to half-maximal inhibition (IC50) and the “SGC7901 SI” value is 9.3. For the same molecule, in assay [7], half-maximal inhibition (IC50) required 2.5 ± 0.1 µM and the “HeLa SI” value is 7.5. In addition, in assay [8], the IC50 amounted to 1.9 ± 0.2 µM and the “K562 SI” value came out at 9.5.
For the molecule `CN1C/C(=C\c2cc(/N=C/c3cccc(O)c3O)ccc2F)C(=O)/C(=C/c2cc(/N=C/c3cccc(O)c3O)ccc2F)C1` [6a], in assay [1], the IC50 was determined as 2.2 µM and the “Ave SI” value was found to be 10.2. Also, in assay [2], half-maximal inhibition (IC50) required 1.9 ± 0.1 µM and the “A549 SI” value amounted to 11.6. In assay [3], this molecule registered an IC50 of 21.7 ± 2 µM. In addition, in assay [4], 1.5 ± 0.2 µM corresponded to half-maximal inhibition (IC50) and the “THP-1 SI” value was determined as 14.2. In assay [5], the midpoint of inhibition, the IC50, lay at 2.6 ± 0.1 µM and the “HePG2 SI” value turned out to be 8.4. In assay [6], the IC50 amounted to 2.4 ± 0.1 µM and the “SGC7901 SI” value is reported as 9.2. In addition, in assay [7], the IC50 was determined as 2.2 ± 0.2 µM and the “HeLa SI” value was found to be 9.9. Also, in assay [8], the concentration for half-maximal inhibition (IC50) turned out to be 2.8 ± 0.2 µM and the “K562 SI” value is on record as 7.7.
With `COc1cc(/C=C/C(=O)CC(=O)/C=C/c2ccc(O)c(OC)c2)ccc1O` [Curcumin, reference compound], in assay [1], the half-inhibitory concentration (IC50) was 20.8 µM and the “Ave SI” value is 1.4. Besides, in assay [2], the IC50 came out at 19.4 ± 0.2 µM and the “A549 SI” value was determined as 1.4. The molecule further displayed a half-inhibitory concentration (IC50) in assay [3] of 27.5 ± 0.4 µM. Further, in assay [4], half-maximal inhibition (IC50) was put at 21.7 ± 0.4 µM and the “THP-1 SI” value was 1.3. For the same molecule, in assay [5], the IC50 was determined as 16 ± 0.2 µM and the “HePG2 SI” value came out at 1.7. In assay [6], the IC50 came out at 21.5 ± 0.3 µM and the “SGC7901 SI” value is on record as 1.3. Besides, in assay [7], the IC50 came to 23.8 ± 1.3 µM and the “HeLa SI” value worked out at 1.2. In assay [8], 22.1 ± 0.8 µM corresponded to half-maximal inhibition (IC50) and the “K562 SI” value is listed as 1.2.
Take `CN1C/C(=C\c2cccc(/N=C/c3cc(Br)ccc3O)c2)C(=O)/C(=C/c2cccc(/N=C/c3cc(Br)ccc3O)c2)C1` [4c]: the IC50 in assay [1] came out at 4.8 µM; in assay [2] it was 9 ± 0.8 µM; in assay [3] it was 12.8 ± 0.2 µM; in assay [4], 2.5 ± 0.2 µM; in assay [5] it was 3.54 ± 0.1 µM; in assay [6], 3 ± 0.3 µM. The results for the half-maximal inhibitory concentration (IC50) in assay [7] and in assay [8] were 4.7 ± 0.1 µM and 6.2 ± 0.7 µM, respectively. The “Ave SI” value in assay [1] worked out at 3.2. The “A549 SI” value in assay [2] is listed as 1.4. Also, the “THP-1 SI” value in assay [4] was 5.1. Also, the “HePG2 SI” value in assay [5] is 3.6. The “SGC7901 SI” value in assay [6] is reported as 4.3. Further, the “HeLa SI” value in assay [7] was determined as 2.8. In addition, the “K562 SI” value in assay [8] is reported as 2.1.
For the molecule `O=C1/C(=C/c2cc(/N=C/c3cc(O)ccc3O)ccc2F)CNC/C1=C\c1cc(/N=C/c2cc(O)ccc2O)ccc1F` [5b], in assay [1], the half-inhibitory concentration (IC50) came out at 3.3 µM and the “Ave SI” value is listed as 5.4. In addition, in assay [2], half-maximal inhibition (IC50) was put at 3 ± 0.1 µM and the “A549 SI” value is reported as 4.8. In assay [3], this molecule yielded a concentration for half-maximal inhibition (IC50) of 14.1 ± 1 µM. Besides, in assay [4], the half-inhibitory concentration (IC50) was found to be 2.2 ± 0.1 µM and the “THP-1 SI” value is 6.4. For the same molecule, in assay [5], the 50% inhibitory concentration (IC50) amounted to 3.3 ± 0.2 µM and the “HePG2 SI” value is recorded as 4.3. In assay [6], the 50% inhibitory concentration (IC50) worked out at 1.3 ± 0.2 µM and the “SGC7901 SI” value was found to be 10.9. For the same molecule, in assay [7], 4.2 ± 0.5 µM corresponded to half-maximal inhibition (IC50) and the “HeLa SI” value amounted to 3.4. Further, in assay [8], inhibition was half-maximal at 5.7 ± 0.4 µM (IC50) and the “K562 SI” value is reported as 2.5.

As a reminder, the IC50 is the concentration at which inhibition is half-maximal.
